The record followed here is ChEMBL document CHEMBL1201862, “PubChem BioAssay data set” (2004).

The source made the active and inactive calls. A value given as a limit tells only on which side of the number the result lay.

One assay in a line: cells. The assay is classed as functional, cell-based. To be noted: HEK-CNG.
The next assay deals with T1, Galanin receptor type 3 (Homo sapiens, UniProt O60755).
T1 sequence (O60755 whole entry): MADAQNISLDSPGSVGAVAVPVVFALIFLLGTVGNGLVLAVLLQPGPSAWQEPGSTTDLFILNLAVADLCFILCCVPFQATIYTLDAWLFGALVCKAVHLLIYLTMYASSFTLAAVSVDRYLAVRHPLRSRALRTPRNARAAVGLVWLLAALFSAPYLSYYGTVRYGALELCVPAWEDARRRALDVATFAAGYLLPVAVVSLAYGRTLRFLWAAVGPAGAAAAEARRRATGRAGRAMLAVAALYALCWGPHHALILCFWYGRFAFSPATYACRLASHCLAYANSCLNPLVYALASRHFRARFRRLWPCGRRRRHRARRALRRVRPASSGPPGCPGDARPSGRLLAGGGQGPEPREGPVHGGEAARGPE
Description: Fluorescence-based cell-based primary high throughput dose response assay to identify antagonists of the Galanin Receptor 3 (GalR3). The class given is functional.

The target of assay [1] is T2, Corticotropin-releasing factor receptor 2/Corticotropin-releasing factor-binding protein (Homo sapiens, UniProt P24387+Q13324).
T2 sequence (Q13324 whole entry): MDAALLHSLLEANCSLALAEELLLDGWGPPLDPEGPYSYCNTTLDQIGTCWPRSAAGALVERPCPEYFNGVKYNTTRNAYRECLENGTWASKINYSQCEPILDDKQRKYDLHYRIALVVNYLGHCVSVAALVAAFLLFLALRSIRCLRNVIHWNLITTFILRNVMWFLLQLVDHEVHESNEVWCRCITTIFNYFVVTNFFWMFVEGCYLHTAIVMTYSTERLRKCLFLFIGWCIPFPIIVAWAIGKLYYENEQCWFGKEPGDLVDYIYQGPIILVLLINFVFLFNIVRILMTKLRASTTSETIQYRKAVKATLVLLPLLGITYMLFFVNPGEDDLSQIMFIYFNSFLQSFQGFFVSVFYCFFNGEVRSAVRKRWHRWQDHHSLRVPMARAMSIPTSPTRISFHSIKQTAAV
T2 sequence (P24387 whole entry): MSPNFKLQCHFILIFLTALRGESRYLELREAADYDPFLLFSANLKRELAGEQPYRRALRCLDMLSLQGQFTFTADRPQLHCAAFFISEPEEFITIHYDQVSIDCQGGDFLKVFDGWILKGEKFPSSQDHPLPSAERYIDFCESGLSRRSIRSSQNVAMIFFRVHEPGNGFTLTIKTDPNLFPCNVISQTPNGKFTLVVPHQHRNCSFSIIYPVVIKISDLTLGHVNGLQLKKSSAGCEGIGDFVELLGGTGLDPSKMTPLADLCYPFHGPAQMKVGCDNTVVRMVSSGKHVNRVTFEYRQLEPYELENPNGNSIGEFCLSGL
Description: activators of CRF receptor 2 with binding protein – uHTS hits, confirmation (AID 602473). The assay is classed as functional. The settings on record: read-out: EC50_Mean.

The next assay addresses Troponin, cardiac muscle (Homo sapiens, UniProt P19429+P45379+P63316). Description: Fluorescence-based biochemical high throughput dose response assay for activators of the calcium sensitivity of cardiac Regulated Thin Filaments (RTF). [Related pubchem assays (depositor defined):AID493008, AID493018, AID504382, AID504383]. The class given is protein-complex assay.
The target in assay [2] is T3, DNA repair protein RAD52 homolog (Homo sapiens, UniProt P43351).
T3 sequence (P43351 whole entry): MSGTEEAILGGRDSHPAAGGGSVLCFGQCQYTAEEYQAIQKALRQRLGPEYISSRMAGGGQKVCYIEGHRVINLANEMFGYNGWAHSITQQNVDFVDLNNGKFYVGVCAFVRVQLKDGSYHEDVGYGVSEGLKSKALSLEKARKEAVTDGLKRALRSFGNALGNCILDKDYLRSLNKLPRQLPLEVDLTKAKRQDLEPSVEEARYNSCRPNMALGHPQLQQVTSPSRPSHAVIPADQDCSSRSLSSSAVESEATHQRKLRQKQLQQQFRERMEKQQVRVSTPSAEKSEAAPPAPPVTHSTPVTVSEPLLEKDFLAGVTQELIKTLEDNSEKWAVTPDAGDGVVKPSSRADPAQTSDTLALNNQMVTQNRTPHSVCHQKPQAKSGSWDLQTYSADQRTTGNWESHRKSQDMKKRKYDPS
The class given is functional, biochemical.

Assay [3] is described as follows: Trypanosoma cruzi growth suppression in host cells – NIH3T3 host cells, beta-gal luminescence, confirmation (AID 2044).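 Also: intracellular parasites grown in NIH/3T3 mouse fibroblasts as host cells; luminescent beta-galactosidase reporter signal from transgenic T. cruzi replicating inside host cells; inhibitors lower the luminescence signal.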 The assay is classed as functional, cell-based.
The target of assay [4] is T4, Microphthalmia-associated transcription factor (Homo sapiens, UniProt O75030).
T4 sequence (O75030 whole entry): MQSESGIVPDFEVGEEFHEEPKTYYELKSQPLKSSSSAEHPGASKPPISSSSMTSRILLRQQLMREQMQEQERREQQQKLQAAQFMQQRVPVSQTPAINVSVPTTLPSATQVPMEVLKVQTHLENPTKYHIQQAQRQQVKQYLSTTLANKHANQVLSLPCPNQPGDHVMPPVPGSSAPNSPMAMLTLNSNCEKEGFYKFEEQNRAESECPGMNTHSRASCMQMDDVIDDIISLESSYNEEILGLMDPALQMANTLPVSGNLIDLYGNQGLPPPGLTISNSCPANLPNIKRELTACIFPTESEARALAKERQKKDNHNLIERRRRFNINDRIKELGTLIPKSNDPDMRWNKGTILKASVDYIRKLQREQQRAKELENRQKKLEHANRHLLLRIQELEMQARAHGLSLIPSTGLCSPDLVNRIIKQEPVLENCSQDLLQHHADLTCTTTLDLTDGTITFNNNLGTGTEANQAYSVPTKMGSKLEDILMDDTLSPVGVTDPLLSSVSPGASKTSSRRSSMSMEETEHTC
Description: reducers of TRPM1 reporter luminescence, concentration series – cell-based, SK-MEL-5, cherry-picked, set 3, MITF inhibitor project, dose response (AID 493073).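 Also: SK-MEL-5 melanoma cells with luciferase driven by the MITF target TRPM1 promoter.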 The class given is functional.

Assay [5] can be described thus: NIH3T3 cell viability loss – ATP luminescence, mouse fibroblasts, counter-screen, dose response (AID 2010).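 Also: cells exposed to compound for about 90 hours before reading.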 The class given is functional, cell-based.
Assay [6] addresses T5, Serine/threonine-protein phosphatase (Candida dubliniensis (strain CD36 / CBS 7987 / NCPF 3949 / NRRLY-17841) (Yeast), UniProt B9W6M3).
T5 sequence (B9W6M3 whole entry): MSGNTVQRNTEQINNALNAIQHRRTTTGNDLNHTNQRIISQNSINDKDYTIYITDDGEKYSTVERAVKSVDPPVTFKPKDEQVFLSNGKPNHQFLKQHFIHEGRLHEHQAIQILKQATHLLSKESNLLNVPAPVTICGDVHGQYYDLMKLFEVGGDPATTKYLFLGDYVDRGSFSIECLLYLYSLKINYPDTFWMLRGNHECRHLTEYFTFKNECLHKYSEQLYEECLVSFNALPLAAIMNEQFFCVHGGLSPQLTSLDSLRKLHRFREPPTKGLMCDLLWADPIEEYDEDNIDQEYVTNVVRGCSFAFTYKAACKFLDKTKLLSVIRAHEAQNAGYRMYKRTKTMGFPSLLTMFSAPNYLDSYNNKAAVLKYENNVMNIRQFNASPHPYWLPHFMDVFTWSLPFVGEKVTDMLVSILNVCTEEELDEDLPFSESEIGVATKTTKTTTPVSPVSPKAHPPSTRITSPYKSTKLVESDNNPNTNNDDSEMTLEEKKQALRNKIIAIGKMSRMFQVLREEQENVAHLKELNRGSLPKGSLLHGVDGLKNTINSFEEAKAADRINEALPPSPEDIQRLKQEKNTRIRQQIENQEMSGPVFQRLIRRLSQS
The experiment in a line: blockers of CaCl2-induced CDRE-lacZ signaling – S. cerevisiae, luminescence, secondary, dose response (AID 2388).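 Also: yeast reporter cells carrying a calcineurin-responsive lacZ construct stimulated with calcium chloride; luminescent beta-galactosidase reporter signal in whole cells rather than isolated phosphatase activity; potency for inhibition where a drop in reporter signal means calcineurin blockade.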 The class given is functional, cell-based.

The nature of assay [7]: NIH-3T3 fibroblast cytotoxicity, dose response, cytotoxicity control, cell-based, fluorescence, Alamar Blue, secondary assay (AID 2327).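 Also: NIH-3T3 mouse fibroblasts cultured with fluconazole at 8 µg/mL.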 The assay is classed as functional.
The target in assay [8] is T6, COUP transcription factor 2 (Homo sapiens, UniProt P24468).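 Also: HEK293 cells transiently cotransfected with COUP-TFII expression vector and reporter; luciferase reporter luminescence driven by COUP-TFII from the pX2-168 reporter plasmid.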
T6 sequence (P24468 whole entry): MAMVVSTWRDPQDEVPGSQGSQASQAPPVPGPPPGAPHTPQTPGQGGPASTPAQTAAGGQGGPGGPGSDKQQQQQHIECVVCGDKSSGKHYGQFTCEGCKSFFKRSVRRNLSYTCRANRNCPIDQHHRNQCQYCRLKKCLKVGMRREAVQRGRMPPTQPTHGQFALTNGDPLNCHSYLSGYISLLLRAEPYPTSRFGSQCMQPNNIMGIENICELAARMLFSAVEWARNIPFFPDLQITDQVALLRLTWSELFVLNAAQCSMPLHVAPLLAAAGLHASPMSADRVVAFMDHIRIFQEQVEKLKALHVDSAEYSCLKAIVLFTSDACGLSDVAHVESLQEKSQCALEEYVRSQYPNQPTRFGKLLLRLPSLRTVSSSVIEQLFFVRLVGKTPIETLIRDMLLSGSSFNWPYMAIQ
The experiment in a line: Luminescence-based cell-based high throughput dose response assay to identify inhibitors of COUP-TFII (NR2F2). The class given is functional.

Assay [9] addresses T7, Nucleotide-binding oligomerization domain-containing protein 1 (Homo sapiens, UniProt Q9Y239).
T7 sequence (Q9Y239 whole entry): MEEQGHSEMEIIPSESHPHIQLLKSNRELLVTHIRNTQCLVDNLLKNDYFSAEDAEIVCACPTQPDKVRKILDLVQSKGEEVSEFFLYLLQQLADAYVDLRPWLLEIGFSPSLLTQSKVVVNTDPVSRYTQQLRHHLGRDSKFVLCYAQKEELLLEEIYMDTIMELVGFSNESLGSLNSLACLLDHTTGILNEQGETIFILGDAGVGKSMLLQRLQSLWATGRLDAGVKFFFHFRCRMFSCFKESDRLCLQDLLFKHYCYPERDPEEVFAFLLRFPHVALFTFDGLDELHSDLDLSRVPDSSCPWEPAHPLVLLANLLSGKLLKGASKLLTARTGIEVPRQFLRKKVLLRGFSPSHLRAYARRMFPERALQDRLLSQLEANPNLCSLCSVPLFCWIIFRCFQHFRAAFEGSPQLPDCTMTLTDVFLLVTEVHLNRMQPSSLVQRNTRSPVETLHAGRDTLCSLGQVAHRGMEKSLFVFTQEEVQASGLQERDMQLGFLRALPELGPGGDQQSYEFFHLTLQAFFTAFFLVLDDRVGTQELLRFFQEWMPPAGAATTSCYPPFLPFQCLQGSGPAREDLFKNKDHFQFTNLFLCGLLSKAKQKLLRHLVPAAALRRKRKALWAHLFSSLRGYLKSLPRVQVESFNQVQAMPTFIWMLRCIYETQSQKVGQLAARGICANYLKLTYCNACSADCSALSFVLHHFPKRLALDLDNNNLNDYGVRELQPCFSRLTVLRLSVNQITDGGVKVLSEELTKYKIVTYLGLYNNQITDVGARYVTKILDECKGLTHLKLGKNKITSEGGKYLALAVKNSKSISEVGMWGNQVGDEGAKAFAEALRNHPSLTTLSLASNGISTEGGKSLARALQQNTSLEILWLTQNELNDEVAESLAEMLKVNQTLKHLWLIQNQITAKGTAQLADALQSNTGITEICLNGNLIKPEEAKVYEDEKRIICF
Description: blockers of NOD1 pathway activity – revised, SAR follow-up (AID 2333). The class given is functional.

Assay [10] has as its target ATP-dependent molecular chaperone HSP82 (Candida albicans (strain WO-1) (Yeast), UniProt C4YTQ8). Description: steroid-induced GRE reporter decrease in yeast – S. cerevisiae, luminescence, Hsp90 inhibitor project, dose response (AID 2400).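 Also: beta-galactosidase luminescence from glucocorticoid response element reporter as proxy for Hsp90 function; inhibitor potency where signal loss means Hsp90 inhibition.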 The assay is classed as functional, cell-based.
The test system of the next assay is INS1. The experiment in a line: INS-1E survival protection against cytokine death – cell-based, luminescence, retest, dose response (AID 449756).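 Also: cell death triggered by IL-1 beta plus TNF-alpha plus IFN-gamma mixture; protective hits raise ATP signal compared with cytokine alone wells.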 The assay is classed as functional. To be noted: Rattus norvegicus.
Assay [11] can be described thus: HEK-293T viability loss after treatment – luminescence, T-cell screen hits, cytotoxicity control for TCR NF-kB inhibitor project, dose response (AID 489026).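 Also: cells exposed to compound about 14 hours before the viability readout.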 The class given is functional, cell-based.
The nature of assay [12]: fluconazole-exposed Candida albicans growth modulators – fluorescence, retest, confirmation (AID 2467). The class given is functional, cell-based.
The test system of a further assay is HEK293. Description: cells. The settings on record: Homo sapiens.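 Also: cells exposed to compound for 14 hours overnight before viability readout.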
The target in the next assay is Tumor necrosis factor (Homo sapiens, UniProt P01375). The experiment in a line: analog potency on TNFa NF-kB signaling – cell-based, revised, SAR follow-up (AID 2337). The class given is functional.
Tumor necrosis factor, sequence (P01375 whole entry): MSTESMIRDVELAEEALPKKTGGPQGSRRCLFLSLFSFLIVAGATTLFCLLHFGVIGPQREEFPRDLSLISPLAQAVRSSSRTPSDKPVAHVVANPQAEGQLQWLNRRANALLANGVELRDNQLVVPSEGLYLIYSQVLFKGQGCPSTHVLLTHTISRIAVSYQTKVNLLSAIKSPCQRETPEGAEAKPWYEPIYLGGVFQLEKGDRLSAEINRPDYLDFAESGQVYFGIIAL
Assay [13] can be described thus: A cytotoxicity screen of small molecule inhibitors of the PhoP region in Salmonella typhi identified in the primary screen. [Related pubchem assays: 1850, 1864, 1985 ]. The assay is classed as functional.

ATP-dependent molecular chaperone HSP82, sequence (C4YTQ8 whole entry): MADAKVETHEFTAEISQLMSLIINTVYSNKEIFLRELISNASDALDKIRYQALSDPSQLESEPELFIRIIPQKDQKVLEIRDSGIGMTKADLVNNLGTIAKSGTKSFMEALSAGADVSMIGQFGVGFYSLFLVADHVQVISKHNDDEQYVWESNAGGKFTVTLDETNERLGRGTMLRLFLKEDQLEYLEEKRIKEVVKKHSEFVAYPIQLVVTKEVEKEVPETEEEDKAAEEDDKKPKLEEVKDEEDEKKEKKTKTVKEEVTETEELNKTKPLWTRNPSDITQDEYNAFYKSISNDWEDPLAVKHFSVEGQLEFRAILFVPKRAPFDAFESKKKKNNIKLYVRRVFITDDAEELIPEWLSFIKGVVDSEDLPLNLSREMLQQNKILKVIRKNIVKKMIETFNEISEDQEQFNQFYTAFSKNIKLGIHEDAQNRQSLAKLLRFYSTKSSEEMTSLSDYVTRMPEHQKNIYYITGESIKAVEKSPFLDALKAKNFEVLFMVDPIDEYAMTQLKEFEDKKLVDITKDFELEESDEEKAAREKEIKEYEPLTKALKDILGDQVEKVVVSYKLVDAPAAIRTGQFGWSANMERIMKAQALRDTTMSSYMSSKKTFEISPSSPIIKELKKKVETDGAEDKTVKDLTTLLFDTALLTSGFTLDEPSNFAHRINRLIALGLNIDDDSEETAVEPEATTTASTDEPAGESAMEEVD

In the case of `Cc1cc(NC(=O)COC(=O)C(Cc2ccccc2)NC(=O)c2ccco2)no1` (stereo not given), the EC50 in the assay “cells” is > 29.9 µM (inactive); in assay [1], 4.49 µM (active); at Troponin, cardiac muscle, > 71.5 µM (inactive). Also, the IC50 at Galanin receptor type 3 is > 29.9 µM (inactive).
With `Cc1cc(C)c2nc3nc(C)cc(C)c3c(N)c2c1`, the AC50 was 1.12 µM (active) in assay [2] and 5.72 µM (active) in assay [4]. For the same compound, the EC50 in assay [3] was 1.5 µM (active); in assay [5], > 60 µM (not active).
As for `CCc1cc(C(=O)NC2CCCc3c2cnn3-c2cccc(C)c2C)n(C)n1` (stereo not given), the EC50 in [6] is > 180 µM (inactive); in assay [7] it was > 150 µM (inactive); in [10] it was > 150 µM (inactive); in assay [12] it was 0.142 µM (active). Moreover, the IC50 in [8] was > 0.117 µM (active); in [9], 0.0983 µM (active); in assay [11] it was > 80 µM (inactive); in the assay on HEK293, > 20 µM (inactive); on Tumor necrosis factor, 0.179 µM (active). Further, the AC50 in the assay with INS1 was < 0.195 µM (active).
Regarding `O=C(Cn1cc(/C=C\[N+](=O)[O-])c2ccccc21)Nc1ccccc1`, in assay [4], the AC50 was 7.45 µM (active). In [13], the EC50 is > 50 µM (active).
